Experimental data reported in patent publication US20260174778A1, “SULFONAMIDE COMPOUND, AND PREPARATION METHOD THEREFOR AND USE THEREOF” (SHANGHAI HENLIUS BIOTECH, INC., priority 2023, published 2026).

What was measured:
[1] = test system: ER-positive breast cancer; conditions: preclinical studies, in vivo and in vitro; cited from earlier work
[2] = test system: breast cancer cell line ZR-75-1; experiment: Inhibition of proliferation of breast cancer cell line ZR-75-1 (CellTiter-Glo); assay type: cell-based; conditions: Homo sapiens, 240 h, proliferation of ZR-75-1 cells, 10 days of incubation, read-out: IC50 (KAT6A)
KAT6A = target: T1, KAT6A (Homo sapiens, UniProt Q92794); experiment: Inhibition of human KAT enzymes, radioisotope method: KAT6A; assay type: biochemical; conditions: KAT6A (488-778)
T1 construct: purchased ACTIVE MOTIF 81223
Text: (§1) Test Example 2: Selective Inhibitory Effects of Test Compounds on Human KAT6 Enzymes (Radioisotope Method)
(§2) • 1. KAT6A (ACTIVE MOTIF, Cat. No. 81223) • 2. KAT5 (BPS, Cat. No. 79422) • 3. KAT7 (ACTIVE MOTIF, Cat. No. 31889) • 4. KAT6B (ACTIVE MOTIF, Cat. No. 81224) • 5. Acetyl coenzyme A, [Acetyl-^3H, 250 μCi (9.25 MBq](PEIRKIN4 ELMER, Cat. No. NET290250UC) • 6. Acetyl coenzyme A (CAYMVAN, Cat. No. 16160) • 7. 384-well Flashplate (Perkin Elmer, Cat. No. SMP410A001PK) • 8. Garcinol (MCE, Cat. No. HY-107569) • 9. Automatic microplate pipetting system (Precision, PRC384U, BioTek) • 10. Ultrasonic nanoliter liquid handling system (Echo 650 Liquid Handler, Echo 650, Labcyte) • 11. Centrifuge (Avanti J-15R, Beckman Coulter) • 12. Liquid scintillation counter (Microplate Counter, Microbeta2, Perkin Elmer)
(§3) • 1. For KAT6A and KAT7, a 1× assay buffer was prepared as follows: 10 mM Tris-HCl pH 8.0, 0.01% Tween-20, and 1 mM DTT; for KAT6B and KAT5, a 1× assay buffer was prepared as follows: 50 mM Tris-HCl pH 8.0, 0.05% Tween-20, and 1 mM DTT. • 2. Compound preparation: For KAT6A, KAT6B, and KAT7, the final concentration of the compounds started at 1 μM, followed by a 5-fold serial dilution across a total of 7 concentration gradients; for KAT5, the final concentration of the compounds started at 10 μM, followed by a 5-fold serial dilution across a total of 7 concentration gradients. • 3. Substrate reaction solution preparation: The mixed substrates of H4 peptide and [3H]acetyl coenzyme A at final concentrations were prepared using the respective 1× assay buffers, as shown in Table 4.
(§4) • 1. The enzyme solution was transferred to 384-well reaction plates at 10 μL/well. For each negative control well, 10 μL of the 1× assay buffer was transferred. The plates were then centrifuged at 1000 RPM for 1 min and incubated at room temperature for 15 min. • 2. The substrate reaction solution was added at 10 μL/well, and the plates were centrifuged at 1000 RPM for 1 min to start the reaction. • 3. The samples for KAT6A, KAT6B, KAT7, KAT8, and KAT5 were then incubated at room temperature for 60 min, 120 min, 45 min, 60 min, and 120 min, respectively. • 4. Stop solution preparation: A stop solution was prepared by diluting 50 µM cold Ac-CoA in 1× buffer. • 5. The stop solution was added at 10 μL/well, and the plates were centrifuged at […] for 1 min to stop the reaction. • 6. The mixtures in the reaction plates were transferred at 25 μL/well to new plates (Streptavidin FlashPlate HTS PLUS, High Capacity, 384-well). • 7. The plates were incubated at room temperature for at least 60 min and then • 8. read using MicroBeta2.
(§5) Raw data were obtained in EXCEL, and the inhibition rates were calculated:
(§6) [formula] [formula] • Max signal: reaction signal from enzyme and substrate; • Sample signal: signal from sample; • Min signal: signal from substrate only (negative control).
(§7) The inhibition rate data were imported into XLFit Excel, and IC50 values were obtained using formula (2):
(§8) [formula] [formula] • Top: value of the top plateau of the fitted regression curve; • Bottom: value of the bottom plateau of the fitted regression curve; • HillSlope: slope of the fitted regression curve.
(§9) The IC50 value was substituted into formula (3) to obtain the enzymatic activity inhibition constant Ki:
(§10) [formula] • [S]: substrate concentration; Km: Michaelis constant.

KAT6B = target: T2, KAT6B (Homo sapiens, UniProt Q8WYB5); experiment: Inhibition of human KAT enzymes, radioisotope method: KAT6B; assay type: biochemical; conditions: KAT6B (718-1008)
T2 construct: purchased ACTIVE MOTIF 81224
T2 sequence (Q8WYB5 whole entry): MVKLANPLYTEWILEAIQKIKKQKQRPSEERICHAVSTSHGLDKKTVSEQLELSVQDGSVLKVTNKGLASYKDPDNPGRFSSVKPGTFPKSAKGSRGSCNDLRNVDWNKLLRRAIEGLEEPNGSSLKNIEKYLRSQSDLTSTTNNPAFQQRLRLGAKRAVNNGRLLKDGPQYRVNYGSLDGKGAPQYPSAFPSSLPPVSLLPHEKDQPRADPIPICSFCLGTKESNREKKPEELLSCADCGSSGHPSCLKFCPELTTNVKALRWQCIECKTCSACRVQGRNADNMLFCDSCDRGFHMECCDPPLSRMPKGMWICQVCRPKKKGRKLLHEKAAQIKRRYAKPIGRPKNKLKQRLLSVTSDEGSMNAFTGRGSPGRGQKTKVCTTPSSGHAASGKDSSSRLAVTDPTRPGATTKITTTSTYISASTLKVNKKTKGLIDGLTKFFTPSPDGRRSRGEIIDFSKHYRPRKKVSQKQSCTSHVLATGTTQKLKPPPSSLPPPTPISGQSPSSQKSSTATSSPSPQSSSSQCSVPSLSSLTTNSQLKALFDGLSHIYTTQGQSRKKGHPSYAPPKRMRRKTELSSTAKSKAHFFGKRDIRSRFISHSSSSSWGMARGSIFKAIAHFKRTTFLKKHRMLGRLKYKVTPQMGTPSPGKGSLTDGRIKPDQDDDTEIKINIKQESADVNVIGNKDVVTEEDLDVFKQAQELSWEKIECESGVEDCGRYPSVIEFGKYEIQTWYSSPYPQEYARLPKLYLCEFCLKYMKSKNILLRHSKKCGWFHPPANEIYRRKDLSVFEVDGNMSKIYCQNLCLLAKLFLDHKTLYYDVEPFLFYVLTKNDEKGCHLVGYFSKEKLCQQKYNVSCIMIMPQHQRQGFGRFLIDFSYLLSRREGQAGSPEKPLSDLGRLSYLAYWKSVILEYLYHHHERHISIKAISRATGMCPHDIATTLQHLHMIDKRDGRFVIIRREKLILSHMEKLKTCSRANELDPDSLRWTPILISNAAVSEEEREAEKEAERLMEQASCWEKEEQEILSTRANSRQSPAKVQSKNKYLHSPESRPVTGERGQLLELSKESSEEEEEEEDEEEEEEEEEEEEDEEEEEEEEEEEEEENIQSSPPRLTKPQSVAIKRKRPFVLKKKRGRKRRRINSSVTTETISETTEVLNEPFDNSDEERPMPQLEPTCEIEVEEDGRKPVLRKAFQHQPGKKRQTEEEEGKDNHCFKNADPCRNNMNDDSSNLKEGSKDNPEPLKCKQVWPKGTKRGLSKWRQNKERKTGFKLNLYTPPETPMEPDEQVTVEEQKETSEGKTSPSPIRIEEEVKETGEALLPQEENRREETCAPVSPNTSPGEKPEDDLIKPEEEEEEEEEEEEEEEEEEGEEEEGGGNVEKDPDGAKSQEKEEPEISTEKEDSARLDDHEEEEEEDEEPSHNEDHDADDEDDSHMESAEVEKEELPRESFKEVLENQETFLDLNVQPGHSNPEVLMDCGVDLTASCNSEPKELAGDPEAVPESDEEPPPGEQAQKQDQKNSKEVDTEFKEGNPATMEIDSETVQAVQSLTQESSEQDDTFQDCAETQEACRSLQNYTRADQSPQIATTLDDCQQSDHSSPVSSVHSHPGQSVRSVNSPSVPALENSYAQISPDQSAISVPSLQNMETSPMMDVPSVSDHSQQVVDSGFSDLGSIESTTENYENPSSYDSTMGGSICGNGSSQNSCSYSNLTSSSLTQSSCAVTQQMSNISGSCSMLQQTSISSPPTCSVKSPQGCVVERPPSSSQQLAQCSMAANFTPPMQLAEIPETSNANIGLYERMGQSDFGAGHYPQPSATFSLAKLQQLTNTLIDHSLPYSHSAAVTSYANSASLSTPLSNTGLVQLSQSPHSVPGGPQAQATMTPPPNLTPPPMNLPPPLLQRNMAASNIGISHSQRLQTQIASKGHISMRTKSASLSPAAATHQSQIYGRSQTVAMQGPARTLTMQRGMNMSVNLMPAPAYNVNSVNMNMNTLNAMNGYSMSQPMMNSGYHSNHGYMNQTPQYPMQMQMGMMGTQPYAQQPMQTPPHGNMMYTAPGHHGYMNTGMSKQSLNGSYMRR
Text: as §1, §2, §3, §4, §5, §6, §7, §8, §9, §10

KAT5 = target: T3, KAT5 (Homo sapiens, UniProt Q92993); experiment: Inhibition of human KAT enzymes, radioisotope method: KAT5; assay type: biochemical; conditions: for Ki: KAT5 (full-length), radioisotope method; for KAT5/ KAT6A / KAT5/ KAT6B: selectivity, ratio of Ki
T3 construct: purchased BPS 79422
T3 sequence (Q92993 whole entry): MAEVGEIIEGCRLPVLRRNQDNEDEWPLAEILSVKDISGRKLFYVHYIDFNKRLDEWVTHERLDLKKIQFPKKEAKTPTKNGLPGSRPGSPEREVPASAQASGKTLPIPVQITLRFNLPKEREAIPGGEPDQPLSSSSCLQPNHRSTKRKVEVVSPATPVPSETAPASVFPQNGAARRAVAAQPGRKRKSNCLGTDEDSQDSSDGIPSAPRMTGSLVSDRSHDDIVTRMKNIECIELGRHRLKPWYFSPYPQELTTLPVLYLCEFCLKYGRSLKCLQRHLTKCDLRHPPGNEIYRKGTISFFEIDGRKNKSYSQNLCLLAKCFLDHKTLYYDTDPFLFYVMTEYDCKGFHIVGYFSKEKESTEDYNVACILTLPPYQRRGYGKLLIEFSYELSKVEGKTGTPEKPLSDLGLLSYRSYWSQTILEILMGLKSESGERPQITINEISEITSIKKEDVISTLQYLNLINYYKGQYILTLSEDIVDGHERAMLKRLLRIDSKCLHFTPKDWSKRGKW
Text: as §1, §2, §3, §4, §5, §6, §7, §8, §9, §10

KAT7 = target: T4, KAT7 (Homo sapiens, UniProt O95251); experiment: Inhibition of human KAT enzymes, radioisotope method: KAT7; assay type: biochemical; conditions: for Ki: KAT7 (full-length), radioisotope method; for KAT7/ KAT6A / KAT7/ KAT6B: selectivity, ratio of Ki
T4 construct: purchased ACTIVE MOTIF 31889
T4 sequence (O95251 whole entry): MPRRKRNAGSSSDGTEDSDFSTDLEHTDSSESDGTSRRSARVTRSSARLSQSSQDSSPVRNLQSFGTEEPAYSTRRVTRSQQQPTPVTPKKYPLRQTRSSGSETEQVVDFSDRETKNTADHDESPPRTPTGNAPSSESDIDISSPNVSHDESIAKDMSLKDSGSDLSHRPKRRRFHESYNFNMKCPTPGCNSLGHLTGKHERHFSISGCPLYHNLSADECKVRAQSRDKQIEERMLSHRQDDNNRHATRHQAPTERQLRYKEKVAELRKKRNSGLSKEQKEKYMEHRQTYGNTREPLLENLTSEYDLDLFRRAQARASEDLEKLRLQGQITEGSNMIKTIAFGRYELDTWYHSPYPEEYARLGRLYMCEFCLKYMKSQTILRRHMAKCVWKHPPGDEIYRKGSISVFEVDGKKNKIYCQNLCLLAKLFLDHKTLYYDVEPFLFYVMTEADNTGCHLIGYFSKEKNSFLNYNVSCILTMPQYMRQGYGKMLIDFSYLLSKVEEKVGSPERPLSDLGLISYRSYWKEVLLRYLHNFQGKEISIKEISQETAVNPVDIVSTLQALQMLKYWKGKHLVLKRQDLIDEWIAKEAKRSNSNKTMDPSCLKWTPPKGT
Text: as §1, §2, §3, §4, §5, §6, §7, §8, §9, §10

Row | SMILES | anti-tumor activity against ER-positive breast cancer [1] | IC50 [2] [nM] | Ki (KAT6A) [nM] | Ki (KAT6B) [nM] | Ki (KAT5) [nM] | KAT5/ KAT6A (KAT5) | KAT5/ KAT6B (KAT5) | Ki (KAT7) [nM] | KAT7/ KAT6A (KAT7) | KAT7/ KAT6B (KAT7)
1 | COc1cccc(OC)c1S(=O)(=O)Nc1noc2cc(Cn3cccn3)cc(OC)c12 [CTx-648] | excellent in vivo and in vitro anti-tumor activity |  |  |  |  |  |  |  |  | 
2 | COc1ccc2c(c1S(=O)(=O)Nc1noc3cc(Cn4cccn4)c(F)c(OC)c13)OCCN2C(C)=O [Compound 110, N-(6-((1H-Pyrazol-1-yl)methyl)-5-fluoro-4-methoxybenzo[d]isoxazol-3-yl)-4-acetyl-7-methoxy-3,4-dihydro-2H-benzo[b][1,4]oxazine-8-sulfonamide] |  | 0.5 to 2 | 0.29 | 1.6 | 1150 | 3967 | 719 | 64.5 | 223 | 40
3 | COc1ccc2c(c1S(=O)(=O)Nc1noc3cc(Cn4cccn4)c(F)c(OC)c13)OCCN2S(C)(=O)=O [Compound 121, N-(6-((1H-Pyrazol-1-yl)methyl)-5-fluoro-4-methoxybenzo[d]isoxazol-3-yl)-7-methoxy-4-(methylsulfonyl)-3,4-dihydro-2H-benzo[b][1,4]oxazine-8-sulfonamide] |  | 2 to 10 | 0.28 | 0.9 | 577 | 2061 | 641 | 96 | 343 | 107
